Data on 9 compounds can be found in patent US6593365B1, “Diflunisal esters and related compounds” (The University of Queensland, priority 1997, dated 2003).

Data set [1] concerns in-situ perfused rat liver. The data set is described as follows: In-situ rat liver perfusions, hepatic extraction (Example 4). Type of data set: in vitro ADME. The settings on record: hepatic extraction=1- hepatic availability (F). How it is done:
The hepatic availability (F) for the O-acyl esters of SA and DF was determined using a once through in-situ perfused rat liver preparation (Mellick and Roberts, 1996, J Pharm Pharmacol 48:738-743). Liver was perfused with protein-free Krebs-Henseleit buffer at 30 mL/min for aspirin analogues and with Krebs-Henseleit buffer containing 2% BSA for diflunisal esters studies. Since the solubilities of the diflunisal esters in protein-free media were very low, 2% BSA were used to help to solubilize these compounds. Briefly, 50 μL of a saturated solution of the particular O-acyl SA or DF in Krebs-Henseleit buffer was injected as a bolus into the portal vein cannula. Perfusate outflow samples have collected via a fraction collector over 3 min. 100 μL of these samples was assayed by HPLC to determine the residual concentration of presented ester and the quantity of phenolic metabolite (SA or DF) collected from the perfused liver. The HPLC assay was a modification of the method used by Owen et al. (1987, J Chrom B Biomed Appl 416 293-302) and Rumble et al. (1981, J Chrom 225 252-260).
The hepatic availability (F) was calculated from the ratio of the area under the first moment curve, i.e., outflow concentration time-time profile to the area under the curve for the salicylate phenolic esters, with the assistance of the Moments Calculator 2.2 program for Macintosh computer developed by Robert Purves (1994, J Pharm Sci 83:202-205).

Data set [2] is described as follows: In vitro non-enzymatic hydrolysis in Krebs-Henseleit buffer. The class given is physicochemical. The settings on record: for Hydrolysis rate constant (k): pH 7.4, 25° C., n=5; for half-life: pH 7.4, read-out: Half life (t1/2) (converted). The method, boiled down: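 Derivatives dissolved in Krebs-Henseleit buffer, pH 7.4, 25±1° C, with no protein or 2% w/v BSA; solutions sonicated and centrifuged, supernatant sampled over time. First-order hydrolysis rate constant k derived from ester concentration vs time, and half-life calculated from k.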

Data set [3] has as its system ischaemic/reperfusion rat livers. Put plainly: Ischaemic/reperfusion injury in rat livers (LDH release, bile production). The settings on record: for EC50: Rattus norvegicus. Also noted: species or system Female Sprague-Dawley rats. The method, then:
Female Sprague-Dawley rats (220-250 g) were anaesthetised by interperitoneal injection of pentobarbital sodium (60 mg/kg, Boehringer Ingelhein). […] The bile duct was cannulated with a polyethylene tubing (PE-10, I.D. 0.28 mm; Clay Adams, New Jersey) and bile was collected into pre-weighed microcentrifuge tubes at 70 min intervals (in the middle of experiment and the end of experiment). The portal vein was then cannulated using a 16 G intravenous catheter and the liver was perfused via this cannula with 2% BSA Krebs-Henseleit bicarbonate buffer (pH 7.4) and oxygenated using a membrane oxygenator comprising of silastic tubing and ventilated with carbogen (95% O2/5% CO2). The perfusion system used was recirculating and employed a peristaltic pump (Cole-Parmer, Illinois).
Following a 10 min pre-ischaemia perfusion, the perfusion flow was stopped for 30 min at 37° C. with the liver being kept moist. At the end of this ischaemic phase, a known concentration of the aspirin analogue or diflunisal ester's solution (in 2% BSA Krebs-Henseleit buffer) was added into the perfusate prior to the perfusion being resumed for another 100 min. Outflow fractions were collected up to 140 min. A biochemistry autoanalyzer (Hitachi, model 747; Tokyo, Japan) was employed to determine the level of enzyme (LDH) release.
The degree of ischaemic/reperfusion injury was measured by calculating the area under the LDH release ([…]) versus time curve (AUC). […] The efficacy of each compound is expressed in terms of ED50 which represents the molar dose for 50% reduction of LDH release compared to the control. The comparison of bile production between the first stage of experiment (the first 70 min) and the second stage of experiment (the last 70 min) is also used as index of liver function during an experiment.
On the technique in general: LDH leaks from cells whose membrane has failed.

The target in data set [4] is T1, BSA (bovine serum albumin) (Bos taurus, UniProt P02769).
T1 construct: BSA (bovine serum albumin, fraction V, Sigma); purchased Sigma; host or cells: bovine serum (fraction V)
T1 sequence (P02769 25-607): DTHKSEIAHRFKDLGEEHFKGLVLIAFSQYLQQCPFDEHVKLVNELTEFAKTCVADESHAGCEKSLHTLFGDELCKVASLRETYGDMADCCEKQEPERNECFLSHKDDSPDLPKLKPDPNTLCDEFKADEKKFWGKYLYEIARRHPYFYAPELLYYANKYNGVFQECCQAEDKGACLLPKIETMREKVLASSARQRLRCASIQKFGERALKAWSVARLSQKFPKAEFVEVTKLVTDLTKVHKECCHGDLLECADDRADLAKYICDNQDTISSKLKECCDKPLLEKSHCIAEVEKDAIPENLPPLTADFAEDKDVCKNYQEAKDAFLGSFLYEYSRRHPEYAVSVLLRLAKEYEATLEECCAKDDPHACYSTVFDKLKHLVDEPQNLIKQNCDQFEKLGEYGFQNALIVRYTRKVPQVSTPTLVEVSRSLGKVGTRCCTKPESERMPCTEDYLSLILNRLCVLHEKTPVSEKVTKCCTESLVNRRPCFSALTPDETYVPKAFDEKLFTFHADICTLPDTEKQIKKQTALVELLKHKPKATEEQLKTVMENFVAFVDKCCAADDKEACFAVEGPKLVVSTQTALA
The data set is described as follows: Protein binding by ultrafiltration in 2% BSA Krebs buffer. The class given is in vitro ADME. The settings on record: 2% BSA Krebs-Henseleit buffer pH 7.4, 37° C.; slope of Scatchard plot. The method, then:
These experiments were carried out in Krebs-Henseleit buffer containing 2% w/v BSA (pH 7.4) and incubated at 37° C. for 30 minutes.
A known concentration of the ethanolic (≲1%) aspirin analogue or diflunisal ester stock solution was added to the 2% BSA Krebs solution to make final concentrations of 125 μM, 250 μM and 500 μM.
The unbound fraction (fu) of parent drug and its hydrolysis product were investigated using ultra-filtration: A 1.0 mL aliquot sample (in triplicate) was placed in a ultrafiltration tube (MPS-1, micro-partition system, Amicon) and centrifuged at 3000 g for 10 minutes. The ultra-filtrate was then assayed for parent drug and its hydrolysis product by HPLC.
To eliminate possible errors caused by hydrolysis, identical samples were placed in normal tubes and subjected to the same procedure. This control group (also in triplicate) was used to adjust for the percentage of hydrolysis in the ultra-filtrate under the experimental conditions.
The fu was determined as the ratio of the free concentration to total concentration of solutes. The binding constant (K) was determined from the slope of a Scatchard plot using following equation:
[Db]/[D]=−K[Db]vK[Pt] (3)
where [Db] is the concentration of bound drug, [D] is the concentration of drug, [Pt] is the concentration of total protein, and v is the number of independent binding sites available. This equation is plotted as the ratio [Db]/[D] versus [Db] and in this way the binding constant (K) is determined from the slope while vK[Pt] is determined from the intercept (Martin, 1983).

Setting [5] is: protein-free Krebs-Henseleit buffer as perfusate.
Where [6] appears, read: Krebs-Henseleit buffer 0% BSA, U = Undetectable.
Setting [7] is: bovine, Krebs-Henseleit buffer with 2% w/v BSA.
Setting [8] is: protein-free Krebs-Henseleit buffer, Krebs-Henseleit buffer 0% BSA, first half life, t1/2=0.693/k, U = Undetectable.
[9] abbreviates: C is the ED50 molar dose, read-out: log 1/C (converted).
Where [10] appears, read: molar dose for 50% reduction of LDH release compared to control, 30 min ischaemia, 100 min reperfusion, read-out: ED50 (the source's name).
The mark [11] stands for this setting: 2% BSA in Krebs-Henseleit buffer as perfusate.

Like-named read-outs stand apart in the source and are kept apart here.

Compound `CCCC(=O)Oc1ccccc1C(=O)O` [Compound C4SA, n-butanoylsalicylic acid] displayed a Hepatic extraction in data set [1] (setting [5]) of 0.60. The “Hydrolysis rate constant (k)” value in data set [2] (setting [6]) is given as 0.0049 ± 0.0037 hour^1; in data set [2] (Krebs-Henseleit buffer 2% BSA) it was 0.0031 ± 0.0015 hour^1. The half-life is 224 h in data set [2] (setting [7]) and 141 h in data set [2] (setting [8]). For the same compound, the EC50 in data set [3] (setting [9]) is 49 µM; in data set [3] (setting [10]), 48.8 µM.

On to `O=C(O)c1cc(-c2ccc(F)cc2F)ccc1O` [DF, 2′,4′-difluoro-4-hydroxy-3-biphenylcarboxylic acid, reference compound], for which the Hepatic extraction in data set [1] (setting [11]) worked out at 0.38. The figures for the EC50 in data set [3] (setting [9]) and in data set [3] (setting [10]) were 25.1 µM and 25.2 µM, respectively.

As to `CCCCC(=O)Oc1ccccc1C(=O)O` [Compound C5SA, n-pentanoylsalicylic acid], the “Protein binding constant (K)” value in data set [4] came to 1525 L/mol. The Hepatic extraction in data set [1] (setting [5]) is 0.74. Further, the “Hydrolysis rate constant (k)” value in data set [2] (setting [6]) came to 0.0061 ± 0.0027 hour^1; in data set [2] (Krebs-Henseleit buffer 2% BSA), 0.0028 ± 0.0013 hour^1. The values for the half-life in data set [2] (setting [7]) and in data set [2] (setting [8]) were 248 h and 114 h, respectively. For the same compound, the results for the EC50 in data set [3] (setting [9]) and in data set [3] (setting [10]) were 34.7 µM and 34.6 µM, respectively.

`CCCC(=O)Oc1ccc(-c2ccc(F)cc2F)cc1C(=O)O` [Compound C4D, n-butanoyldiflunisal]: in data set [4], the “Protein binding constant (K)” value is 2365 L/mol. For the same compound, in data set [1] (setting [11]), the Hepatic extraction is given as 0.66. In addition, the “Hydrolysis rate constant (k)” value in data set [2] (Krebs-Henseleit buffer 2% BSA) is on record as 0.0138 ± 0.0058 hour^1. Also, the “log 1/C” value in data set [3] (C is the ED50 molar dose) was 4.67.

In the case of `CCCCCC(=O)Oc1ccc(-c2ccc(F)cc2F)cc1C(=O)O` [Compound C6D, n-hexanoyldiflunisal], the “Protein binding constant (K)” value in data set [4] was determined as 2995 L/mol. Besides, in data set [1] (setting [11]), the Hepatic extraction was 0.62. In addition, the “Hydrolysis rate constant (k)” value in data set [2] (Krebs-Henseleit buffer 2% BSA) is on record as 0.0056 ± 0.0042 hour^1. Also, the “log 1/C” value in data set [3] (C is the ED50 molar dose) was 4.68.

For the compound `CC(=O)Oc1ccc(-c2ccc(F)cc2F)cc1C(=O)O` [Compound C2D, acetyldiflunisal], the “Protein binding constant (K)” value in data set [4] was 2077 L/mol. This compound registered a Hepatic extraction in data set [1] (setting [11]) of 0.49. The “Hydrolysis rate constant (k)” value in data set [2] (setting [6]) amounted to 0.0378 ± 0.0105 hour^1; in data set [2] (Krebs-Henseleit buffer 2% BSA), 0.0238 ± 0.0095 hour^1. Moreover, the “log 1/C” value in data set [3] (C is the ED50 molar dose) was 4.61.

Regarding `CCCCC(=O)Oc1ccc(-c2ccc(F)cc2F)cc1C(=O)O` [Compound C5D, n-pentanoyldiflunisal], the “Protein binding constant (K)” value in data set [4] is 2707 L/mol. In data set [1] (setting [11]), this compound returned a Hepatic extraction of 0.62. Also, the “Hydrolysis rate constant (k)” value in data set [2] (Krebs-Henseleit buffer 2% BSA) is listed as 0.0113 ± 0.0037 hour^1. Besides, in data set [3] (C is the ED50 molar dose), the “log 1/C” value is 4.77.

For “O-acetylsalicylic acid [Compound C2SA, reference compound]”, the “Protein binding constant (K)” value in data set [4] was 192 L/mol. In data set [1] (setting [5]), this compound gave a Hepatic extraction of 0.15.

As for `CCCCCC(=O)Oc1ccccc1C(=O)O` [Compound C6SA, n-hexanoylsalicylic acid], the “Protein binding constant (K)” value in data set [4] was found to be 2071 L/mol. This compound came in with a Hepatic extraction in data set [1] (setting [5]) of 0.98. Besides, the “Hydrolysis rate constant (k)” value in data set [2] (setting [6]) is listed as 0.0059 ± 0.0023 hour^1; in data set [2] (Krebs-Henseleit buffer 2% BSA) it was 0.0021 ± 0.0017 hour^1. Also, the half-life in data set [2] (setting [7]) is 330 h; in data set [2] (setting [8]), 117 h. The EC50 was 28.8 µM in data set [3] (setting [9]) and 29.1 µM in data set [3] (setting [10]).
